24 compounds from US9169254B2, “Spiroimidazolone derivative” (Chugai Seiyaku Kabushiki Kaisha, priority 2009, dated 2015) can be followed below.

The target of the experiment is T1, human PTH1 receptor (Homo sapiens, UniProt Q03431).
T1 sequence (Q03431 27-593): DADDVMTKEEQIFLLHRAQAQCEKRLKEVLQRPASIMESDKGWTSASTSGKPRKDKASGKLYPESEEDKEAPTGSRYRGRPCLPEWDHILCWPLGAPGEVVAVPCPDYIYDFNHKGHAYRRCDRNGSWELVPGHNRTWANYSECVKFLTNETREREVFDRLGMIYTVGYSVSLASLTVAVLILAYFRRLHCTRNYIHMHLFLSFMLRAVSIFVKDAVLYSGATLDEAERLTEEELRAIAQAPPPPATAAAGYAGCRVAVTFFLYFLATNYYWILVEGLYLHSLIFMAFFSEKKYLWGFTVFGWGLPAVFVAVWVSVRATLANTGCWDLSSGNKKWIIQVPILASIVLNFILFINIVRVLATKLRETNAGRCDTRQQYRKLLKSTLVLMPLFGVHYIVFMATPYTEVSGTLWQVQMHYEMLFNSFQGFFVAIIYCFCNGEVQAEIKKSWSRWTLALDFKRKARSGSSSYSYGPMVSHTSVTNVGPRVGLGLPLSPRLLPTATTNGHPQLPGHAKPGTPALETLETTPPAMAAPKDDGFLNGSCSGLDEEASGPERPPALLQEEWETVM
As to the kind of experiment: In vitro cAMP signal activity in HKRK-B7 cells (LLC-PK1 cells overexpressing the human PTH1 receptor). Format: cell-based. To be noted: HKRK-B7 cells; compound at 1×10^−3 M; cAMP produced as percentage of that produced by hPTH(1-34) at 100 nM.

With `Cc1cc(N2COCC2=O)ccc1/C=C/S(=O)(=O)N1CCC2(CC1)N=C(C1CCC(C)CC1)NC2=O` (stereo not drawn) [Compound 577, 2-(4-methyl-cyclohexyl)-8-{(E)-2-[2-methyl-4-(4-oxo-oxazolidin-3-yl)-phenyl]-ethenesulfonyl}-1,3,8-triaza-spiro[4.5]dec-1-en-4-one], the “cAMP production activity (%)” value amounted to 74%. With `Cc1cc(N(C)C(N)=O)cc(C)c1/C=C/S(=O)(=O)N1CCC2(CC1)N=C(c1cccc(OC(F)(F)C(F)F)c1)NC2=O` [Compound 1018, 1-[3,5-dimethyl-4-((E)-2-{4-oxo-2-[3-(1,1,2,2-tetrafluoro-ethoxy)-phenyl]-1,3,8-triaza-spiro[4.5]dec-1-ene-8-sulfonyl}-vinyl)-phenyl]-1-methyl-urea] the figure was 109%; with `Cc1cc(N(C)C(N)=O)cc(C)c1CCS(=O)(=O)N1CCC2(CC1)N=C(CCCCCCCS(C)(=O)=O)NC2=O` [Compound 1357, 1-(4-{2-[2-(7-methanesulfonyl-heptyl)-4-oxo-1,3,8-triaza-spiro[4.5]dec-1-ene-8-sulfonyl]-ethyl}-3,5-dimethyl-phenyl)-1-methyl-urea], 13%. With `O=C1NC(C2CCCCC2)=NC12CCN(S(=O)(=O)CCc1cccc3c1CCCN3)CC2` [Compound 645, 2-Cyclohexyl-8-[2-(1,2,3,4-tetrahydro-quinolin-5-yl)-ethanesulfonyl]-1,3,8-triaza-spiro[4.5]dec-1-en-4-one] the figure was 55%; with `Cc1cc(N(C)C(N)=O)cc(Cl)c1CCS(=O)(=O)N1CCC2(CC1)N=C(C1CCC(C)CC1)NC2=O` (stereo not drawn) [Compound 683, 1-(3-Chloro-5-methyl-4-{2-[2-(4-methyl-cyclohexyl)-4-oxo-1,3,8-triaza-spiro[4.5]dec-1-ene-8-sulfonyl]-ethyl}-phenyl)-1-methyl-urea], 74%.

As for `O=C1NC(C2CCCCC2)=NC12CCN(S(=O)(=O)/C=C/c1cccc3cc[nH]c13)CC2` [Compound 479, 2-cyclohexyl-8-[(E)-2-(1H-indol-7-yl)-ethenesulfonyl]-1,3,8-triaza-spiro[4.5]dec-1-en-4-one], the “cAMP production activity (%)” value was 15%. Under `CC(=O)N(C)c1ccc(CCS(=O)(=O)N2CCC3(CC2)N=C(c2cccc(OC(F)(F)F)c2)NC3=O)c(C)c1` [Compound 299, N-methyl-N-(3-methyl-4-{2-[4-oxo-2-(3-trifluoromethoxy-phenyl)-1,3,8-triaza-spiro[4.5]dec-1-ene-8-sulfonyl]-ethyl}-phenyl)-acetamide] stands 83%; under `Cc1ccc(C(=O)N2CCN(C)CC2)cc1CCS(=O)(=O)N1CCC2(CC1)N=C(c1cccc(OC(F)(F)F)c1)NC2=O` [Compound 414, 8-{2-[2-methyl-5-(4-methyl-piperazine-1-carbonyl)-phenyl]-ethanesulfonyl}-2-(3-trifluoromethoxy-phenyl)-1,3,8-triaza-spiro[4.5]dec-1-en-4-one], 69%. `Cc1ccc(C(=O)N(C)C)cc1-c1ccc(S(=O)(=O)N2CCC3(CC2)N=C(c2ccc(F)c(C(F)(F)F)c2)NC3=O)s1` [Compound 334, 3-{5-[2-(4-fluoro-3-trifluoromethyl-phenyl)-4-oxo-1,3,8-triaza-spiro[4.5]dec-1-ene-8-sulfonyl]-thiophen-2-yl}-4,N,N-trimethyl-benzamide]: the “cAMP production activity (%)” value came to 34%. Under `O=C1NC(C2CCCCC2)=NC12CCN(S(=O)(=O)/C=C/c1cccc3c1ccn3C[C@H](O)CO)CC2` [Compound 191, 2-cyclohexyl-8-{(E)-2-[1-((S)-2,3-dihydroxy-propyl)-1H-indol-4-yl]-ethenesulfonyl}-1,3,8-triaza-spiro[4.5]dec-1-en-4-one] stands 57%; under `CC(=O)Nc1ccc(CCS(=O)(=O)N2CCC3(CC2)N=C(C2CCCCC2)NC3=O)c(C#N)c1` [Compound 652, N-{3-cyano-4-[2-(2-cyclohexyl-4-oxo-1,3,8-triaza-spiro[4.5]dec-1-ene-8-sulfonyl)-ethyl]-phenyl}-acetamide], 63%. In the case of `CC(=O)N(C)c1ccc(C)c(/C=C/S(=O)(=O)N2CCC3(CC2)N=C(c2cccc(OC(F)(F)F)c2)NC3=O)c1` [Compound 225, N-methyl-N-(4-methyl-3-{(E)-2-[4-oxo-2-(3-trifluoromethoxy-phenyl)-1,3,8-triaza-spiro[4.5]dec-1-ene-8-sulfonyl]-vinyl}-phenyl)-acetamide], the “cAMP production activity (%)” value is listed as 47%. Under `CC(=O)Nc1ccc(CCS(=O)(=O)N2CCC3(CC2)N=C(C2CCC(C)(C)CC2)NC3=O)c(C)c1` [Compound 925, N-(4-{2-[2-(4,4-dimethyl-cyclohexyl)-4-oxo-1,3,8-triaza-spiro[4.5]dec-1-ene-8-sulfonyl]-ethyl}-3-methyl-phenyl)-acetamide] stands 69%; under `Cc1cc(C(=O)N2CCC(O)(CF)CC2)cc(C)c1/C=C/S(=O)(=O)N1CCC2(CC1)N=C(c1ccc(S(F)(F)(F)(F)F)cc1)NC2=O` [Compound 1245, 8-{(E)-2-[4-(4-fluoromethyl-4-hydroxy-piperidine-1-carbonyl)-2,6-dimethyl-phenyl]-ethenesulfonyl}-2-(4-pentafluorosulfanyl-phenyl)-1,3,8-triaza-spiro[4.5]dec-1-en-4-one], 115%; under `Cc1cc(C(=O)N2CCC[C@H]2C(F)(F)F)ccc1CCS(=O)(=O)N1CCC2(CC1)N=C(c1cccc(C(F)(F)F)c1)NC2=O` [Compound 354, 8-{2-[2-methyl-4-((S)-2-trifluoromethyl-pyrrolidine-1-carbonyl)-phenyl]-ethanesulfonyl}-2-(3-trifluoromethyl-phenyl)-1,3,8-triaza-spiro[4.5]dec-1-en-4-one], 27%.

As to `CCCCCCCCCC1=NC2(CCN(S(=O)(=O)CCc3ccc(N4C(=O)CNC4=O)cc3C(F)(F)F)CC2)C(=O)N1` [Compound 795, 3-{4-[2-(2-nonyl-4-oxo-1,3,8-triaza-spiro[4.5]dec-1-ene-8-sulfonyl)-ethyl]-3-trifluoromethyl-phenyl}-imidazolidine-2,4-dione], the “cAMP production activity (%)” value was found to be 97%. With `Cc1cc(N2NCCC2=O)ccc1/C=C/S(=O)(=O)N1CCC2(CC1)N=C([C@H]1CC[C@H](C)CC1)NC2=O` [Compound 588, 2-(4-methyl-cyclohexyl)-8-{(E)-2-[2-methyl-4-(5-oxo-pyrazolidin-1-yl)-phenyl]-ethenesulfonyl}-1,3,8-triaza-spiro[4.5]dec-1-en-4-one] the figure was 77%; with `Cc1cc2c(/C=C/S(=O)(=O)N3CCC4(CC3)N=C(C3CCCCC3)NC4=O)cccc2[nH]1` [Compound 637, 2-Cyclohexyl-8-[(E)-2-(2-methyl-1H-indol-4-yl)-ethenesulfonyl]-1,3,8-triaza-spiro[4.5]dec-1-en-4-one], 38%; with `COc1ccccc1/C=C/S(=O)(=O)N1CCC2(CC1)N=C(C1CCCCC1)NC2=O` [Compound 181, 2-cyclohexyl-8-[(E)-2-(2-methoxy-phenyl)-ethenesulfonyl]-1,3,8-triaza-spiro[4.5]dec-1-en-4-one], 19%. Under `CN(C)C(=O)Cn1ccc2c(/C=C/S(=O)(=O)N3CCC4(CC3)N=C(C3CCCCC3)NC4=O)cccc21` [Compound 193, 2-{4-[(E)-2-(2-cyclohexyl-4-oxo-1,3,8-triaza-spiro[4.5]dec-1-ene-8-sulfonyl)-vinyl]-indol-1-yl}-N,N-dimethyl-acetamide] stands 65%; under `Cc1cc(C(=O)N(C)C)ccc1CCS(=O)(=O)N1CCC2(CC1)N=C(N(C)Cc1ccccc1)NC2=O` [Compound 1398, 4-{2-[2-(benzyl-methyl-amino)-4-oxo-1,3,8-triaza-spiro[4.5]dec-1-ene-8-sulfonyl]-ethyl}-3,N,N-trimethyl-benzamide], 77%; under `Cc1c(/C=C/S(=O)(=O)N2CCC3(CC2)N=C(c2cccc(OC(F)(F)F)c2)NC3=O)cccc1OCCC(O)CO` (stereo not drawn) [Compound 254, 8-{(E)-2-[3-(3,4-Dihydroxy-butoxy)-2-methyl-phenyl]-ethenesulfonyl}-2-(3-trifluoromethoxy-phenyl)-1,3,8-triaza-spiro[4.5]dec-1-en-4-one], 97%.

As to `[2H]C([2H])([2H])C([2H])([2H])Oc1cc(C2=NC3(CCN(S(=O)(=O)/C=C/c4c(C)cc(C(=O)N5CCC(C)(O)CC5)cc4C)CC3)C(=O)N2)ccc1F` [Compound 1224, 2-(3-[1,1,2,2,2-^2H5]ethoxy-4-fluoro-phenyl)-8-{(E)-2-[4-(4-hydroxy-4-methyl-piperidine-1-carbonyl)-2,6-dimethyl-phenyl]-ethenesulfonyl}-1,3,8-triaza-spiro[4.5]dec-1-en-4-one], the “cAMP production activity (%)” value turned out to be 88%. With `O=C(OCc1ccccc1)N1CCCC(C2=NC3(CCN(S(=O)(=O)CCc4cccc5ccccc45)CC3)C(=O)N2)C1` (stereo not drawn) [Compound 464, 3-[8-(2-naphthalen-1-yl-ethanesulfonyl)-4-oxo-1,3,8-triaza-spiro[4.5]dec-1-en-2-yl]-piperidine-1-carboxylic acid benzyl ester], the “cAMP production activity (%)” value is given as 54%.
